The values that follow are results of earlier work, collected in US20240344094A1, “METHODS AND COMPOSITIONS USEFUL FOR THE PRODUCTION OF OLEFINIC ESTER” (THE REGENTS OF THE UNIVERSITY OF CALIFORNIA, priority 2021, published 2024).

Each structure is given as a SMILES string.

For the molecule `C=C(C)CCO` [Isoprenol, 3-methyl-3-buten-1-ol], where the note is “20° in water”, the solubility in water result was “about 90 g/L”.

Turning to `CC(=O)OCCC(C)C` [isoamyl acetate], the “solubility limit in water” value (water) is ~10000 µg/mL.
